In experiment [1] the test system is mouse melanoma B16 cells. The experiment in a line: Influence of extract powder and other skin-whitening ingredients on melanin formation (Test 2 for in vitro skin-whitening effect, Experiment 4). It counts as cell-based. Also noted: Judgement, 1.25% extract powder of indigo plant: key to the marks not given beside the values. The following applies: 72 hours. Here is the method:
The following experiment was conducted to examine the influence of an extract powder of indigo plant and other ingredients with skin-whitening action on melanin formation. Mouse melanoma B16 cells were cultured for 24 hours, and to the resulting culture was added any one of the test solutions to give a composition ratio (%) of each of […], followed by culturing for 72 hours. The viable cells were counted and packed into a capillary tube for color observation. The judgement of the effects was evaluated based on the same criterion as in Experiment 1. In this experiment system, the effect in the case of culturing the cells with addition of 0.025% of the extract powder of indigo extract was judged to be “+”.

For experiment [2], the system named is S. mutans. Briefly: Minimum inhibitory concentration (MIC), Experiment 13. It is filed as cell-based. The following applies: Streptococcus mutans. The procedure:
(§1) The following experiment was conducted to examine the influence of an extract powder of indigo plant on microorganisms in human oral cavity. An extract powder of indigo plant, prepared by the method in the later described Example 1, was dissolved in refined water to obtain an aqueous solution with a concentration of 1.5% indigo plant extract, d.s.b. Using the aqueous solution, the minimum inhibitory concentration (may be designated as “MIC”, hereinafter) against microorganisms in human oral cavity (microorganisms as causatives of periodontal diseases and dental caries) was determined. Tryptanthrin, gallic acid, and caffeic acid, which had been confirmed to be contained in the indigo extract, were determined for MIC against microorganisms in human oral cavity, and the data was shown in Table 9 in parallel. The following method was used for assaying MIC.
(§2) The MICs of an extract powder of indigo plant, tryptanthrin, gallic acid, and caffeic acid against microorganisms in human oral cavity were determined according to the standard method of Japanese Society of Chemotherapy (see “Saikin-Shinkin-Kensa (Test for Bacteria and Fungi), 2nd Edition”, pp. 524-529 (1982)). Examples of microorganisms, used as causatives of periodontal diseases, were microorganisms of Prophyromonas gingivalis strains such as JCM8525, JCM12257, and ATCC 33277 strains; those of Actinobacillus actinomycetemcomitans (may be abbreviated as “A. actinomycetemcomitans”) such as JCM2434 and JCM8577 strains; Prevotella intermedia (may be abbreviated as P. intermedia) JCM7365 strain; and Campylobacter rectus (may be abbreviated as C. rectus) JMC6301 strain. Examples of microorganisms, used as causatives of dental caries, were Streptococcus mutans strains such as OMZ-175, OMZ-176, OMZ-65, OMZ-61, B-13D, and Ingbritt strains; and Streptococcus sobrinus (may be abbreviated as “S. sobrinus”) 6715 strain. Among these microorganisms, those which are causatives of periodontal diseases were cultured at 37° C. for 48 hours, while those which are causatives of dental caries were cultured at 37° C. for 18 to 24 hours under anaerobic conditions by using a brain heart infusion (abbreviated as “BHI”, hereinafter), commercialized by Difco Laboratories, Detroit, USA, supplemented with 5 μg/ml of hemin, and 0.5 μg/ml of vitamin K3. The resulting cultures of the microorganisms, as causatives of both periodontal diseases and dental caries, were respectively diluted into solutions with 10^8 cells and 10^6 cells.

Experiment [3] relates to S. sobrinus. The experiment is described as above. It counts as cell-based. The conditions noted are these: Streptococcus sobrinus, read-out: Minimum inhibitory concentration (MIC). The procedure:
as §1, §2

Experiment [4] deals with P. intermedia. The experiment is described as above. It counts as cell-based. The conditions noted are these: Prevotella intermedia, read-out: Minimum inhibitory concentration (MIC). The procedure:
as §1, §2

For experiment [5], the system named is C. rectus. The description is as above. It counts as cell-based. The conditions noted are these: Campylobacter rectus, read-out: Minimum inhibitory concentration (MIC). The procedure: as §1, §2
Experiment [6] deals with A. actinomycetemcomitans. Described as above. It is filed as cell-based, Actinobacillus actinomycetemcomitans. The conditions noted are these: for MIC: Aggregatibacter actinomycetemcomitans, read-out: Minimum inhibitory concentration (MIC). The procedure:
as §1, §2

The subject of experiment [7] is P. gingivalis. The experiment is described as above. It is filed as cell-based, Prophyromonas gingivalis. The following applies: for MIC: Porphyromonas gingivalis. Here is the method: as §1, §2
Experiment [8] deals with mouse melanoma B16 cells. Briefly: Influence on melanin formation, blackening of cells (Test 1 for in vitro whitening effect, Experiment 3). It counts as cell-based. The conditions noted are these: medium containing 2.5 mM; cultured 72 hours. Here is the method: Using a dried leaf of Polygonum tinctorium Lour., Japanese knotweed, buckwheat, or knotgrass as a plant of the family Polygonaceae, extract powders of which were prepared. The extract powders of indigo plant were prepared by the method in later described Example 2. According to the same method as in Example 2, using a dried leaf of Japanese knotweed, buckwheat, or knotgrass in place of the one of Polygonum tinctorium Lour., extract powders of the above plants were prepared for use in the following experiment, where, as an extract powder of indigo plant, the one prepared by the method in later described Example 2 was used, unless specified otherwise. […] After counting the number of viable cells, the viable cells were packed into a capillary tube for color observation. […] The degree of blackening of the B16 cells was evaluated based on the following criterion, and the results are in Table 3. Evaluations with Reference to the Blackening Degree of Control Free of Agent: −: Unchanged; ±: Slight inhibition of blackening; +: Positive inhibition of blackening; ++: Clear inhibition of blackening; +++: Complete inhibition of blackening.

The mark [9] stands for this setting: ingredient 1.0% in combination with extract powder of indigo plant.
[10] abbreviates: ingredient 0.5% in combination with extract powder of indigo plant.
Where [11] appears, read: strain B-13D, read-out: Minimum inhibitory concentration (MIC).
[12] abbreviates: strain Ingbritt, read-out: Minimum inhibitory concentration (MIC).
Where [13] appears, read: strain OMZ-61, read-out: Minimum inhibitory concentration (MIC).
[14] abbreviates: strain OMZ-65, read-out: Minimum inhibitory concentration (MIC).
[15] abbreviates: strain OMZ-175, read-out: Minimum inhibitory concentration (MIC).
[16] abbreviates: strain OMZ-176, read-out: Minimum inhibitory concentration (MIC).
Setting [17] is: strain JMC12257, read-out: Minimum inhibitory concentration (MIC).

Converted amounts (≈) assume the structure as drawn. Where two headings read alike, the source gives them in different places.

With `COc1ccc(C(=O)[O-])c(O)c1.[K+]` [4-Methoxysalicylic acid potassium salt], in experiment [1] (composition ratio 1.0%), the “Judgement, With no extract powder of indigo plant” value (“Judgement, With no extract powder” for short) was “+”. Besides, the “Judgement, 1.25% extract powder of indigo plant” value (“Judgement, 1.25% extract powder” for short) in experiment [1] (setting [9]) is recorded as “+++”.
Consider `CCCCc1ccc(O)cc1O` [4-n-Butylresorcinol], for which the “Judgement, With no extract powder” value in experiment [1] (composition ratio 0.5%) is “+”. Besides, the “Judgement, 1.25% extract powder” value in experiment [1] (setting [10]) was “+++”.
In the same order, the values of `OC[C@H]1O[C@@H](Oc2ccc(O)cc2)[C@H](O)[C@@H](O)[C@@H]1O` [Arbutin] are “+” and “+++”.
As to `O=C(O)/C=C/c1ccc(O)c(O)c1` [Caffeic acid], the MIC in experiment [2] (setting [11]) stood at 200 µg/mL (≈ 1110 µM); in experiment [2] (setting [12]), 1600 µg/mL (≈ 8880 µM); in experiment [2] (setting [13]), 400 µg/mL (≈ 2220 µM); in experiment [2] (setting [14]) it was 200 µg/mL (≈ 1110 µM); in experiment [2] (setting [15]) it was 400 µg/mL (≈ 2220 µM); in experiment [2] (setting [16]), 800 µg/mL (≈ 4440 µM). Also, the MIC in experiment [3] (strain 6715) was 800 µg/mL (≈ 4440 µM); in experiment [4] (strain JMC7365), 400 µg/mL (≈ 2220 µM); in experiment [5] (strain JMC6301), 100 µg/mL (≈ 555 µM); in experiment [6] (strain JMC2434), 400 µg/mL (≈ 2220 µM); in experiment [6] (strain JMC8577), 200 µg/mL (≈ 1110 µM); in experiment [7] (setting [17]), 400 µg/mL (≈ 2220 µM). Besides, the “Minimum inhibitory concentration (MIC)” value in experiment [7] (strain JCM8525) and in experiment [7] (strain JMC33277) was 400 µg/mL (≈ 2220 µM) in each case.
Take `O=c1oc2c(O)c(O)cc3c(=O)oc4c(O)c(O)cc1c4c23` [Ellagic acid]: the “Judgement, With no extract powder” value in experiment [1] (composition ratio 0.5%) was “±”. Besides, the “Judgement, 1.25% extract powder” value in experiment [1] (setting [10]) is given as “++”.
`O=C(O)c1cc(O)c(O)c(O)c1` [Gallic acid]: the MIC in experiment [2] (setting [11]) was found to be 200 µg/mL (≈ 1180 µM); in experiment [2] (setting [12]), 1600 µg/mL (≈ 9410 µM); in experiment [2] (setting [13]), 200 µg/mL (≈ 1180 µM); in experiment [2] (setting [14]) it was 1600 µg/mL (≈ 9410 µM); in experiment [2] (setting [15]), 400 µg/mL (≈ 2350 µM); in experiment [2] (setting [16]), 400 µg/mL (≈ 2350 µM). Also, the MIC in experiment [3] (strain 6715) was found to be 800 µg/mL (≈ 4700 µM); in experiment [4] (strain JMC7365) it was 400 µg/mL (≈ 2350 µM); in experiment [5] (strain JMC6301) it was 400 µg/mL (≈ 2350 µM); in experiment [6] (strain JMC2434) it was 800 µg/mL (≈ 4700 µM); in experiment [6] (strain JMC8577), 800 µg/mL (≈ 4700 µM); in experiment [7] (setting [17]), 400 µg/mL (≈ 2350 µM). Besides, the “Minimum inhibitory concentration (MIC)” value in experiment [7] (strain JCM8525) and in experiment [7] (strain JMC33277) was 400 µg/mL (≈ 2350 µM) each time.
For `O=c1cc(CO)occ1O` [Kojic acid], the “Judgement, With no extract powder” value in experiment [1] (composition ratio 1.0%) is recorded as “+”. Moreover, in experiment [1] (setting [9]), the “Judgement, 1.25% extract powder” value is “+++”. Further, the “Judgement (inhibition of blackening of B16 cells)” value in experiment [8] is “+”.
Turning to `CCCCC/C=C\C/C=C\CCCCCCCC(=O)O` [Linoleic acid], the “Judgement, With no extract powder” value in experiment [1] (composition ratio 0.5%) is listed as “±”. Further, in experiment [1] (setting [10]), the “Judgement, 1.25% extract powder” value is on record as “++”.
As to `O=C1O[C@H]([C@@H](O)CO)C([O-])=C1O.[Na+]` [Sodium L-ascorbate], in experiment [1] (composition ratio 2.0%), the “Judgement, With no extract powder” value is on record as “+”. In addition, in experiment [1] (ingredient 2.0% in combination with extract powder of indigo plant), the “Judgement, 1.25% extract powder” value is listed as “+++”.
On to `COc1cc(CCC(=O)CC(=O)CCc2ccc(O)c(OC)c2)ccc1O` [Tetrahydrocurcumin], for which, in experiment [1] (composition ratio 0.5%), the “Judgement, With no extract powder” value is “±”. Further, the “Judgement, 1.25% extract powder” value in experiment [1] (setting [10]) is listed as “++”.
As to `NC[C@H]1CC[C@H](C(=O)O)CC1` [Tranexamic acid], the “Judgement, With no extract powder” value in experiment [1] (composition ratio 1.0%) is recorded as “±”. Also, in experiment [1] (setting [9]), the “Judgement, 1.25% extract powder” value is listed as “++”.
Turning to `O=C1c2ccccc2-n2c1nc1ccccc1c2=O` [Tryptanthrin], the MIC was 6.25 µg/mL (≈ 25.2 µM) in experiment [2] (read-out: Minimum inhibitory concentration (MIC), strain B-13D); 25 µg/mL (≈ 101 µM) in experiment [2] (read-out: Minimum inhibitory concentration (MIC), strain Ingbritt); 6.25 µg/mL (≈ 25.2 µM) in experiment [2] (read-out: Minimum inhibitory concentration (MIC), strain OMZ-61); 12.5 µg/mL (≈ 50.4 µM) in experiment [2] (read-out: Minimum inhibitory concentration (MIC), strain OMZ-65); 6.25 µg/mL (≈ 25.2 µM) in experiment [2] (read-out: Minimum inhibitory concentration (MIC), strain OMZ-175); 12.5 µg/mL (≈ 50.4 µM) in experiment [2] (read-out: Minimum inhibitory concentration (MIC), strain OMZ-176). For the same molecule, the MIC in experiment [3] came out at 25 µg/mL (≈ 101 µM); in experiment [4], 6.25 µg/mL (≈ 25.2 µM); in experiment [5], 25 µg/mL (≈ 101 µM); in experiment [6], 25 µg/mL (≈ 101 µM); in experiment [7] (read-out: Minimum inhibitory concentration (MIC), strain JMC8525) it was 6.25 µg/mL (≈ 25.2 µM); in experiment [7] (read-out: Minimum inhibitory concentration (MIC), strain JMC12257) it was 12.5 µg/mL (≈ 50.4 µM). Also, the MIC in experiment [7] (read-out: Minimum inhibitory concentration (MIC), strain JMC33277) was 12.5 µg/mL (≈ 50.4 µM). Also, the “Minimum inhibitory concentration (MIC)” value in experiment [6] (strain JMC2434) was determined as 25 µg/mL (≈ 101 µM).

The values above are taken from patent publication US20100034757A1, “EXTRACT POWDER OF INDIGO PLANT, AND ITS PREPARATION AND USES” (priority 2006, published 2010).
